Measurements as given in the NIST ThermoML archive (doi:10.1016/j.jct.2012.11.032).

Test: xn = mol fraction of the nth substance listed
Settings: 101 kPa, Liquid; for speed of sound: Sing-around technique in a fixed-path interferometer; for mass density: Vibrating tube method

CCCCCCCCCCCC[n+]1ccn(C)c1.[Cl-] [1-dodecyl-3-methylimidazolium chloride] + O
Settings | mass density [kg/m3] | speed of sound [m/s]
283 K, x1 = 2.7e-05 | 999.688 | –
283 K, x1 = 3e-05 | 999.704 | –
283 K, x1 = 4.8e-05 | 999.71 | –
283 K, x1 = 7.4e-05 | 999.71 | –
283 K, x1 = 9.4e-05 | 999.705 | –
283 K, x1 = 0.000109 | 999.71 | –
283 K, x1 = 0.000129 | 999.718 | –
283 K, x1 = 0.000145 | 999.717 | –
283 K, x1 = 0.000163 | 999.735 | –
283 K, x1 = 0.000181 | 999.724 | –
283 K, x1 = 0.000208 | 999.73 | –
283 K, x1 = 0.000234 | 999.729 | –
283 K, x1 = 0.000248 | 999.744 | –
283 K, x1 = 0.000273 | 999.743 | –
283 K, x1 = 0.000286 | 999.744 | –
283 K, x1 = 0.000302 | 999.732 | –
283 K, x1 = 0.000319 | 999.749 | –
283 K, x1 = 0.000341 | 999.737 | –
283 K, x1 = 0.000384 | 999.728 | –
283 K, x1 = 0.000407 | 999.721 | –
283 K, x1 = 0.000428 | 999.712 | –
283 K, x1 = 0.0027 | – | 1448.4
283 K, x1 = 0.003 | – | 1448.5
283 K, x1 = 0.0048 | – | 1448.8
283 K, x1 = 0.0074 | – | 1449.3
283 K, x1 = 0.0094 | – | 1449.7
283 K, x1 = 0.0109 | – | 1449.9
283 K, x1 = 0.0129 | – | 1450.2
283 K, x1 = 0.0145 | – | 1450.5
283 K, x1 = 0.0163 | – | 1450.8
283 K, x1 = 0.0181 | – | 1451.2
283 K, x1 = 0.0208 | – | 1451.7
283 K, x1 = 0.0234 | – | 1452
283 K, x1 = 0.0248 | – | 1452.2
283 K, x1 = 0.0273 | – | 1452.6
283 K, x1 = 0.0286 | – | 1452.7
283 K, x1 = 0.0302 | – | 1452.8
283 K, x1 = 0.0319 | – | 1453.1
283 K, x1 = 0.0341 | – | 1453.5
283 K, x1 = 0.0384 | – | 1453.5
283 K, x1 = 0.0407 | – | 1453.7
283 K, x1 = 0.0428 | – | 1453.7
288 K, x1 = 2.7e-05 | 999.099 | –
288 K, x1 = 3e-05 | 999.118 | –
288 K, x1 = 4.8e-05 | 999.119 | –
288 K, x1 = 7.4e-05 | 999.115 | –
288 K, x1 = 9.4e-05 | 999.109 | –
288 K, x1 = 0.000109 | 999.114 | –
288 K, x1 = 0.000129 | 999.12 | –
288 K, x1 = 0.000145 | 999.116 | –
288 K, x1 = 0.000163 | 999.133 | –
288 K, x1 = 0.000181 | 999.119 | –
288 K, x1 = 0.000208 | 999.122 | –
288 K, x1 = 0.000234 | 999.12 | –
288 K, x1 = 0.000248 | 999.133 | –
288 K, x1 = 0.000273 | 999.127 | –
288 K, x1 = 0.000286 | 999.125 | –
288 K, x1 = 0.000302 | 999.113 | –
288 K, x1 = 0.000319 | 999.128 | –
288 K, x1 = 0.000341 | 999.116 | –
288 K, x1 = 0.000384 | 999.108 | –
288 K, x1 = 0.000407 | 999.096 | –
288 K, x1 = 0.000428 | 999.082 | –
288 K, x1 = 0.0027 | – | 1466.7
288 K, x1 = 0.003 | – | 1466.8
288 K, x1 = 0.0048 | – | 1467.1
288 K, x1 = 0.0074 | – | 1467.6
288 K, x1 = 0.0094 | – | 1467.9
288 K, x1 = 0.0109 | – | 1468.1
288 K, x1 = 0.0129 | – | 1468.4
288 K, x1 = 0.0145 | – | 1468.6
288 K, x1 = 0.0163 | – | 1468.9
288 K, x1 = 0.0181 | – | 1469.2
288 K, x1 = 0.0208 | – | 1469.7
288 K, x1 = 0.0234 | – | 1470
288 K, x1 = 0.0248 | – | 1470.2
288 K, x1 = 0.0273 | – | 1470.5
288 K, x1 = 0.0286 | – | 1470.6
288 K, x1 = 0.0302 | – | 1470.7
288 K, x1 = 0.0319 | – | 1470.9
288 K, x1 = 0.0341 | – | 1471
288 K, x1 = 0.0384 | – | 1471
288 K, x1 = 0.0407 | – | 1471.2
288 K, x1 = 0.0428 | – | 1471.2
293 K, x1 = 2.7e-05 | 998.213 | –
293 K, x1 = 3e-05 | 998.232 | –
293 K, x1 = 4.8e-05 | 998.233 | –
293 K, x1 = 7.4e-05 | 998.224 | –
293 K, x1 = 9.4e-05 | 998.217 | –
293 K, x1 = 0.000109 | 998.222 | –
293 K, x1 = 0.000129 | 998.227 | –
293 K, x1 = 0.000145 | 998.219 | –
293 K, x1 = 0.000163 | 998.236 | –
293 K, x1 = 0.000181 | 998.221 | –
293 K, x1 = 0.000208 | 998.22 | –
293 K, x1 = 0.000234 | 998.218 | –
293 K, x1 = 0.000248 | 998.227 | –
293 K, x1 = 0.000273 | 998.218 | –
293 K, x1 = 0.000286 | 998.214 | –
293 K, x1 = 0.000302 | 998.2 | –
293 K, x1 = 0.000319 | 998.213 | –
293 K, x1 = 0.000341 | 998.199 | –
293 K, x1 = 0.000384 | 998.191 | –
293 K, x1 = 0.000407 | 998.175 | –
293 K, x1 = 0.000428 | 998.16 | –
293 K, x1 = 0.0027 | – | 1482.9
293 K, x1 = 0.003 | – | 1483
293 K, x1 = 0.0048 | – | 1483.3
293 K, x1 = 0.0074 | – | 1483.7
293 K, x1 = 0.0094 | – | 1484
293 K, x1 = 0.0109 | – | 1484.2
293 K, x1 = 0.0129 | – | 1484.5
293 K, x1 = 0.0145 | – | 1484.7
293 K, x1 = 0.0163 | – | 1485
293 K, x1 = 0.0181 | – | 1485.2
293 K, x1 = 0.0208 | – | 1485.6
293 K, x1 = 0.0234 | – | 1485.9
293 K, x1 = 0.0248 | – | 1486
293 K, x1 = 0.0273 | – | 1486.3
293 K, x1 = 0.0286 | – | 1486.4
293 K, x1 = 0.0302 | – | 1486.5
293 K, x1 = 0.0319 | – | 1486.6
293 K, x1 = 0.0341 | – | 1486.7
293 K, x1 = 0.0384 | – | 1486.7
293 K, x1 = 0.0407 | – | 1486.9
293 K, x1 = 0.0428 | – | 1486.9
298 K, x1 = 0.0027 | – | 1497.1
298 K, x1 = 0.003 | – | 1497.2
298 K, x1 = 0.0048 | – | 1497.4
298 K, x1 = 0.0074 | – | 1497.8
298 K, x1 = 0.0094 | – | 1498.1
298 K, x1 = 0.0109 | – | 1498.3
298 K, x1 = 0.0129 | – | 1498.5
298 K, x1 = 0.0145 | – | 1498.7
298 K, x1 = 0.0163 | – | 1499
298 K, x1 = 0.0181 | – | 1499.2
298 K, x1 = 0.0208 | – | 1499.6
298 K, x1 = 0.0234 | – | 1499.8
298 K, x1 = 0.0248 | – | 1500
298 K, x1 = 0.0273 | – | 1500.2
298 K, x1 = 0.0286 | – | 1500.3
298 K, x1 = 0.0302 | – | 1500.3
298 K, x1 = 0.0319 | – | 1500.5
298 K, x1 = 0.0341 | – | 1500.5
298 K, x1 = 0.0384 | – | 1500.5
298 K, x1 = 0.0407 | – | 1500.7
